Source: PMC6568410, “A scorpion venom peptide derivative BmKn‒22 with potent antibiofilm activity against Pseudomonas aeruginosa” (PLoS ONE, 2019)
Where no end group is shown, it is not given here.

Legend:
[1] = test system: P. aeruginosa PAO1 biofilm formation; experiment: Biofilm formation assay, crystal violet staining; assay type: cell-based, Pseudomonas aeruginosa
Description: (§1) The effect of BmKn‒2 peptide and derivatives on biofilm formation of P. aeruginosa PAO1 was determined according to the method published previously with some modifications. Briefly, 100 μL of the test peptides was plated into the wells of flat-bottomed 96-well microtiter plates (Nunc™, Roskilde, Denmark) at the final concentrations of 200 ‒ 800 μM. Aliquots of the P. aeruginosa PAO1 suspension were then inoculated to the wells of 96-well microtiter plates to obtain a final concentration of 10^6 CFU/mL. Culture without the test peptides was used as the untreated control. After incubation at 37 ^OC for 24 h without agitation, planktonic cells were removed and the plates were gently rinsed twice with phosphate buffered saline (PBS) pH 7.4. Biofilms were then stained with 0.1% crystal violet solution (Merck, Darmstadt, Germany) for 10 minutes at room temperature. Excess stains were rinsed off with PBS pH 7.4 and the plates were left dry at 37 ^OC for 2 h. Subsequently, biofilm biomass was solubilized with 30% acetic acid and the optical density (OD) measured at 550 nm using a microplate reader (BioTek Synergy HT).

[2] = test system: lasR mRNA; experiment: qRT-PCR of quorum sensing-related gene lasR; assay type: cell-based, Pseudomonas aeruginosa; settings: 800 µM, 10 h
Description: (§2) The effects of BmKn‒22 peptide on the expression of quorum sensing‒related genes in P. aeruginosa PAO1 were assessed by qPCR. Briefly, bacterial suspension at approximately 10^7 CFU/mL was cultured in the presence or absence of the test peptide (800 μM, final concentration) at 37 ^OC for 10 h using a shaking incubator. After centrifugation at 4,500 rpm for 10 minutes, the bacterial cells were harvested and subsequently subjected to total RNA extraction using TRIzol® reagent (Invitrogen, USA) as per the manufacturer’s instruction. The concentration of the extracted RNA was measured using Nanodrop spectrophotometer (NanoDrop Technologies, USA). Thereafter, 1 μg of extracted RNA was reverse-transcribed into cDNA using Random Hexamer primer and RevertAid First Strand cDNA synthesis kit (Fermantas), which was amplified by real-time PCR. The primers for the genes lasI, lasR, RhlI, RhlR and 16S rRNA were used (Table 2). All primers were synthesized by the Integrated DNA Technology (IDT), Canada. The reaction mixture consisted of 1× AccuPower® 2X GreenStar™ qPCR Master Mix, 0.4 μmol/L each forward primer and reverse primer and 1 μL of cDNA in a final volume of 10 μL. Thermal cycles used was 95 ^OC for 2.5 min, followed by 40 cycles of 95 ^OC for 30 sec, 60 ^OC for 30 sec and 72 ^OC for 30 sec. The expression level of the target gene was normalized to 16S rRNA gene. Relative expression of the target genes was obtained from 2^‒ΔΔct.

[3] = test system: sheep red blood cells; experiment: Hemolytic assay; assay type: cell-based; settings: 800 µM, 37 °C, 1 h
Description: Hemolytic activity of the test peptides was assayed according to a protocol described previously. Suspension of 2% sheep red blood cells (100 μL) prepared in PBS pH 7.4 was incubated with 100 μL of the test peptides (800 μM, final concentration). After incubation at 37 ^OC for 1 h, the suspension was centrifuged at 1,000 g for 5 min followed by transferring 100 μL of the supernatant to 96 well-microtiter plate (Nunc). Released hemoglobin was then determined by measuring an absorbance at 405 nm using a microplate reader (BioTek Synergy HT). Positive and negative controls in this assay were 1% Triton X-100 and PBS pH 7.4, respectively. Hemolysis (%) was calculated using an equation: (OD405 nm peptide ‒ OD405 nm PBS pH 7.4)/(OD405 nm 1% Triton X-100 ‒ OD405 nm PBS pH 7.4) × 100.

[4] = test system: lasI mRNA; experiment: qRT-PCR of quorum sensing-related gene lasI; assay type: cell-based, Pseudomonas aeruginosa; settings: 800 µM, 10 h
Description: as §2

[5] = test system: rhlR mRNA; experiment: qRT-PCR of quorum sensing-related gene rhlR; assay type: cell-based, Pseudomonas aeruginosa; settings: 800 µM, 10 h
Description: as §2

[6] = test system: P. aeruginosa PAO1 biofilms; experiment: Antibiofilm activity of BmKn-22 and azithromycin alone or in combination, crystal violet; assay type: cell-based, Pseudomonas aeruginosa
Description: as §1
Briefly, P. aeruginosa PAO1 suspension (10^6 CFU/mL, final concentration) was added to the wells of flat-bottomed 96-well microtiter plates (Nunc) containing the test peptide, azithromycin (AZM; Sigma) alone or in combinations. […] Biofilm formation was employed by measuring biofilm biomass stained with crystal violet as a protocol described in previous section.

[7] = test system: rhlI mRNA; experiment: qRT-PCR of quorum sensing-related gene rhlI; assay type: cell-based, Pseudomonas aeruginosa; settings: 800 µM, 10 h
Description: as §2

[8] = normalized to 16S rRNA, 2^-ΔΔct, untreated control = 1, mean of 2 independent experiments in quadruplicate

FIGAIARLLSK [BmKn-22]
Biofilm inhibition (%), biofilm formation ([1]; 200 µM, Exp. 1): 27.575%
Biofilm inhibition (%), biofilm formation ([1]; 200 µM, Exp. 2): 27.680%
Biofilm inhibition (%), biofilm formation ([1]; 200 µM, Exp. 3): 8.419%
Biofilm inhibition (%), biofilm formation ([1]; 400 µM, Exp. 1): 20.197%
Biofilm inhibition (%), biofilm formation ([1]; 400 µM, Exp. 2): 40.825%
Biofilm inhibition (%), biofilm formation ([1]; 400 µM, Exp. 3): 37.257%
reduction of P. aeruginosa biofilms ([1]; 800 µM, 24 h, compared with untreated control, result in words): marked reduction
Biofilm inhibition (%), biofilm formation ([1]; 800 µM, Exp. 1): 46.468%
Biofilm inhibition (%), biofilm formation ([1]; 800 µM, Exp. 2): 53.212%
Biofilm inhibition (%), biofilm formation ([1]; 800 µM, Exp. 3): 47.945%
Relative mRNA expression, lasR [2, 8]: 0.949
Relative mRNA expression, lasR ([2]; Exp. 1): 0.732
Relative mRNA expression, lasR ([2]; Exp. 2): 1.166
mRNA expression of lasR ([2]; result in words): no alteration
lysis of red blood cells [3]: less or no hemolysis
Relative mRNA expression, lasI [4, 8]: 0.403
Relative mRNA expression, lasI ([4]; Exp. 1): 0.314
Relative mRNA expression, lasI ([4]; Exp. 2): 0.491
mRNA expression of lasI ([4]; result in words): significantly (P < 0.05) decreased
Relative mRNA expression, rhlR [5, 8]: 0.511
Relative mRNA expression, rhlR ([5]; Exp. 1): 0.408
Relative mRNA expression, rhlR ([5]; Exp. 2): 0.614
mRNA expression of rhlR ([5]; result in words): significantly (P < 0.05) decreased
biofilm reduction ([6]; BmKn-22 at 200 µM combined with 64 µg/mL azithromycin (1/2 MIC)): Up to 51.39%
biofilm reduction ([6]; BmKn-22 at 400 µM combined with 64 µg/mL azithromycin (1/2 MIC)): ≤ 62.05%
biofilm reduction ([6]; BmKn-22 at 800 µM combined with 64 µg/mL azithromycin (1/2 MIC)): 96.97%
Biofilm biomass (% control) ([6]; peptide alone 200 µM, 24 h, 37 °C, crystal violet, mean of 3 independent experiments): 80.903 % control
Biofilm biomass (% control) ([6]; peptide alone 200 µM, Exp. 1): 94.033 % control
Biofilm biomass (% control) ([6]; peptide alone 200 µM, Exp. 2): 82.424 % control
Biofilm biomass (% control) ([6]; peptide alone 200 µM, Exp. 3): 66.251 % control
Biofilm biomass (% control) ([6]; peptide alone 400 µM, 24 h, 37 °C, crystal violet, mean of 3 independent experiments): 67.309 % control
Biofilm biomass (% control) ([6]; peptide alone 400 µM, Exp. 1): 75.858 % control
Biofilm biomass (% control) ([6]; peptide alone 400 µM, Exp. 2): 68.773 % control
Biofilm biomass (% control) ([6]; peptide alone 400 µM, Exp. 3): 57.297 % control
Biofilm biomass (% control) ([6]; peptide alone 800 µM, 24 h, 37 °C, crystal violet, mean of 3 independent experiments): 43.753 % control
Biofilm biomass (% control) ([6]; peptide alone 800 µM, Exp. 1): 51.716 % control
Biofilm biomass (% control) ([6]; peptide alone 800 µM, Exp. 2): 46.698 % control
Biofilm biomass (% control) ([6]; peptide alone 800 µM, Exp. 3): 32.845 % control
Relative mRNA expression, rhlI [7, 8]: 1.127
Relative mRNA expression, rhlI ([7]; Exp. 1): 0.929
Relative mRNA expression, rhlI ([7]; Exp. 2): 1.325
mRNA expression of rhlI ([7]; result in words): no alteration
